What was measured:
Assay type in all cases: cell-based
[1] = biological target: T1, AR (Homo sapiens, UniProt P10275); assay: Degradation of AR in VCaP cells; details: for Dmax: VCaP
T1 construct: Degradation of AR; Cellular potency; host or cells: VCaP cells
T1 sequence (P10275 1-920): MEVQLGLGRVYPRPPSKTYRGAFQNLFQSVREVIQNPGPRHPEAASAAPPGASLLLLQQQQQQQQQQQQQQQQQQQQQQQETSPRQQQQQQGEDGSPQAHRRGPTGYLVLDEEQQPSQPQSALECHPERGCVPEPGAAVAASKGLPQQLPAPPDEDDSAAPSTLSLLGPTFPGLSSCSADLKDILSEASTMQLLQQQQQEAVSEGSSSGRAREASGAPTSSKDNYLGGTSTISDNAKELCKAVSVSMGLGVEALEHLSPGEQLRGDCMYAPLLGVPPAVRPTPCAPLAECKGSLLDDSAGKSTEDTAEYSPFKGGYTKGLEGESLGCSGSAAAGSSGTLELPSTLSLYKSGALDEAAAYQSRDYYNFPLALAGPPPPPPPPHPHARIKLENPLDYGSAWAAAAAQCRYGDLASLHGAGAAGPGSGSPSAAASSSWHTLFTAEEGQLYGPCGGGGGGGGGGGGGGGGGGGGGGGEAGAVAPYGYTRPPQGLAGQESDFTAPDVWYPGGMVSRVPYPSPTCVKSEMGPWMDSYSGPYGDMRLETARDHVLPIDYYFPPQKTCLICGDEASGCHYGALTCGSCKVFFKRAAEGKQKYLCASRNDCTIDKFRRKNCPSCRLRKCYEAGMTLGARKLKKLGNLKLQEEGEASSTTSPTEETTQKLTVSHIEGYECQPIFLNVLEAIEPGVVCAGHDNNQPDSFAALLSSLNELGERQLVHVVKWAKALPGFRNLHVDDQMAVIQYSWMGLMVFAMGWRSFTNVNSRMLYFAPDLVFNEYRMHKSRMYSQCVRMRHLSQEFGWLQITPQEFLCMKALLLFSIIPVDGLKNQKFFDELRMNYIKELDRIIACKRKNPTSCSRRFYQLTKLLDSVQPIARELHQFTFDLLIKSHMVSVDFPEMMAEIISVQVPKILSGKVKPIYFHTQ
Protocol: (§1) Biological Assays. LNCaP and VCaP cells used were purchased from American Type Culture Collection (ATCC). LNCaP were grown in RPMI 1640 (Invitrogen) and VCaP cells were grown in DMEM with Glutamax (Invitrogen). All of the cells were supplemented with 10% fetal bovine serum (Invitrogen) at 37° C. in a humidified 5% CO2 incubator.

[2] = test system: LNCaP cells; assay: Cellular potency (IC50) in LNCaP cells; details: Homo sapiens, LNCaP
Protocol: as §1

[3] = test system: VCaP cells; assay: Cellular potency (IC50) in VCaP cells; details: Homo sapiens, VCaP
Protocol: as §1

Dmax [1]	Structure (SMILES)	DC50 ([1]; VCaP cells)	Dmax ([1]; VCaP cells)	IC50 [2]	IC50 [3]
–	COC1(CN2CCN(c3ccc(N4CCC5(CC4)C[C@H](C)N(c4ccc(C#N)c(Cl)c4)C5)nc3)CC2)CN(c2ccc3c(c2)C(=O)N(C2CCC(=O)NC2=O)C3=O)C1 (some centres unmarked) [compound 89]	< 1 nM	> 90%	–	–
–	COC1(CN2CCN(c3ccc(N4CCC5(CC4)C[C@H](C)N(c4ccc(C#N)c(Cl)c4)C5)cc3)CC2)CN(c2ccc3c(c2)C(=O)N(C2CCC(=O)NC2=O)C3=O)C1 (some centres unmarked) [compound 85]	< 1 nM	> 90%	–	–
–	C[C@H]1CC2(CCN(c3ccc(N4CCN(CC5(F)CN(c6ccc7c(c6)C(=O)N(C6CCC(=O)NC6=O)C7=O)C5)CC4)cc3)CC2)CN1c1ccc(C#N)c(Cl)c1 (some centres unmarked) [compound 84]	< 1 nM	> 90%	–	–
–	C[C@H]1CC2(CCN(c3ccc(CN4CCC(C5CCN(c6ccc7c(c6)C(=O)N(C6CCC(=O)NC6=O)C7=O)CC5)CC4)cn3)CC2)CN1c1ccc(C#N)c(Cl)c1 (stereo partly drawn) [compound 180, 2-chloro-4-((3S)-8-(5-((1′-(2-(2,6-dioxopiperidin-3-yl)-1,3-dioxoisoindolin-5-yl)-[4,4′-bipiperidin]-1-yl)methyl)pyridin-2-yl)-3-methyl-2,8-diazaspiro[4.5]decan-2-yl)benzonitrile]	–	–	< 10 nM	< 100 nM
–	C[C@H]1CC2(CCN(c3ccc(S(=O)(=O)N4CCN(C5CCN(c6ccc7c(c6)C(=O)N(C6CCC(=O)NC6=O)C7=O)CC5)CC4)cc3)CC2)CN1c1ccc(C#N)c(Cl)c1 (some centres unmarked) [compound 1]	< 1 nM	> 90%	–	–
–	C[C@H]1CC2(CCN(c3cnc(CN4CCN(C5CN(c6ccc7c(c6)C(=O)N(C6CCC(=O)NC6=O)C7=O)C5)CC4)nc3)CC2)CN1c1ccc(C#N)c(Cl)c1 (stereo partly drawn) [compound 170, 2-chloro-4-((3S)-8-(2-((4-(1-(2-(2,6-dioxopiperidin-3-yl)-1,3-dioxoisoindolin-5-yl)azetidin-3-yl)piperazin-1-yl)methyl)pyrimidin-5-yl)-3-methyl-2,8-diazaspiro[4.5]decan-2-yl)benzonitrile]	–	–	< 10 nM	< 100 nM
> 90%	COC1(CN2Cc3cc4c(cc3C2)C(=O)N(C2CCC(=O)NC2=O)C4=O)CCN(C(=O)c2ccc(N3CCC4(CC3)C[C@H](C)N(c3ccc(C#N)c(F)c3)C4)cc2)CC1 (some centres unmarked) [compound 13]	< 100 nM	–	–	–
–	C[C@H]1CC2(CCN(c3ccc(CN4CCN(C5CN(c6cc7c(cc6F)C(=O)N(C6CCC(=O)NC6=O)C7=O)C5)CC4)cn3)CC2)CN1c1ccc(C#N)c(Cl)c1 (stereo partly drawn) [compound 153, 2-chloro-4-((3S)-8-(5-((4-(1-(2-(2,6-dioxopiperidin-3-yl)-6-fluoro-1,3-dioxoisoindolin-5-yl)azetidin-3-yl)piperazin-1-yl)methyl)pyridin-2-yl)-3-methyl-2,8-diazaspiro[4.5]decan-2-yl)benzonitrile]	–	–	< 10 nM	< 100 nM
–	C[C@H]1CC2(CCN(c3ccc(N4CCN(CC5(F)CN(c6ccc7c(c6)C(=O)N(C6CCC(=O)NC6=O)C7=O)C5)CC4)nc3)CC2)CN1c1ccc(C#N)c(Cl)c1 (some centres unmarked) [compound 86]	< 1 nM	> 90%	–	–
–	C[C@H]1CC2(CCN(c3ccc(C4CCN(C(=O)CN5Cc6cc7c(cc6C5)C(=O)N(C5CCC(=O)NC5=O)C7=O)CC4)cc3)CC2)CN1c1ccc(C#N)c(Cl)c1 (some centres unmarked) [compound 15]	< 100 nM	> 90%	–	–
–	C[C@H]1CC2(CCN(c3ccc(CN4CCN(C5CN(c6ccc7c(c6)C(=O)N(C6CCC(=O)NC6=O)C7=O)C5)CC4)cn3)CC2)CN1c1ccc(C#N)c(Cl)c1 (some centres unmarked) [compound 167]	–	–	< 10 nM	< 10 nM
–	C[C@H]1CC2(CCN(c3ccc(N4CCN(CC5(F)CN(c6ccc7c(c6)C(=O)N(C6CCC(=O)NC6=O)C7=O)C5)CC4)cn3)CC2)CN1c1ccc(C#N)c(Cl)c1 (some centres unmarked) [compound 88]	< 1 nM	> 90%	–	–
–	COC1(CN2CCN(c3ccc(N4CCC5(CC4)C[C@H](C)N(c4ccc(C#N)c(Cl)c4)C5)cn3)CC2)CN(c2ccc3c(c2)C(=O)N(C2CCC(=O)NC2=O)C3=O)C1 (some centres unmarked) [compound 87]	< 1 nM	> 90%	–	–

From patent US20240190874A1, “SMALL MOLECULE DEGRADERS OF ANDROGEN RECEPTOR” (THE REGENTS OF THE UNIVERSITY OF MICHIGAN, priority 2021, published 2024)
